This passage reports IC50 results from patent publication US7442710B2, “Substituted phenyl methanones” (Hoffman-La Roche Inc., priority 2005, dated 2008).

This assay addresses T1, mGlyT-1b (Mus musculus, UniProt P28571).
T1 construct: host or cells: Flp-in-CHO cells, stably transfected
T1 sequence (P28571 1-651 isoform P28571-2): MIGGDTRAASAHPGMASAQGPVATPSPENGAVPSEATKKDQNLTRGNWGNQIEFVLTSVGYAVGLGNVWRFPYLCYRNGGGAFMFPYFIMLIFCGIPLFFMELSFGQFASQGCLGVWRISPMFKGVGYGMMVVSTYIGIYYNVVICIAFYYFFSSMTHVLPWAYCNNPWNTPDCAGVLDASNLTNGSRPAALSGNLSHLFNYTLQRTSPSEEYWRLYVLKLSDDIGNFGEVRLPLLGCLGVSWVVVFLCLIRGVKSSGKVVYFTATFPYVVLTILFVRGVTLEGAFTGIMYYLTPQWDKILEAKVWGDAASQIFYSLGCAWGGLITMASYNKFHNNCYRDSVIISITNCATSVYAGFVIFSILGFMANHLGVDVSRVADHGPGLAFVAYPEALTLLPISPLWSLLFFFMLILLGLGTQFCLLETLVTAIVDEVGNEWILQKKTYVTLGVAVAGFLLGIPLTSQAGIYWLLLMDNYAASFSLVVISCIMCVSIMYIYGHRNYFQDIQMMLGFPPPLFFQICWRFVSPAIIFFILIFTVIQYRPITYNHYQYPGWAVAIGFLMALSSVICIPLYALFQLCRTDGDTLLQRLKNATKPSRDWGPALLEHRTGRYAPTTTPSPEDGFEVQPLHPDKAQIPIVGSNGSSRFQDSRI
Put plainly: Glycine uptake inhibition assay (mGlyT-1b). The assay is classed as cell-based. Particulars: [3H]-glycine uptake, Flp-in-CHO cells transfected with mGlyT-1b cDNA. The protocol: DMEM complete medium: Nutrient mixture F-12 (Gibco Life-technologies), fetal bovine serum (FBS) 5%, (Gibco life technologies), Penicillin/Streptomycin 1% (Gibco life technologies), Hygromycin 0.6 mg/ml (Gibco life technologies), Glutamine 1 mM Gibco life technologies).
Uptake buffer (UB): 150 mM NaCl, 10 mM Hepes-Tris, pH 7.4, 1 mM CaCl2, 2.5 mM KCl, 2.5 mM MgSO4, 10 mM (+) D-glucose. Flp-in™-CHO (Invitrogen Cat n° R758-07)cells stably transfected with mGlyT1b cDNA.
Glycine uptake inhibition assay (mGlyT-1b)
On day 1 mammalian cells, (Flp-in™-CHO), transfected with mGlyT-1b cDNA, were plated at the density of 40,000 cells/well in complete F-12 medium, without hygromycin in 96-well culture plates. On day 2, the medium was aspirated and the cells were washed twice with uptake buffer (UB). The cells were then incubated for 20 min at 22° C. with either (i) no potential competitor, (ii) 10 mM non-radioactive glycine, (iii) a concentration of a potential inhibitor. A range of concentrations of the potential inhibitor was used to generate data for calculating the concentration of inhibitor resulting in 50% of the effect (e.g. IC50, the concentration of the competitor inhibiting glycine uptake of 50%). A solution was then immediately added containing [^3H]-glycine 60 nM (11-16 Ci/mmol) and 25 μM non-radioactive glycine. The plates were incubated with gentle shaking and the reaction was stopped by aspiration of the mixture and washing (three times) with ice-cold UB. The cells were lysed with scintillation liquid, shaken 3 hours and the radioactivity in the cells was counted using a scintillation counter.
As for `CC(C)Oc1ccc(S(C)(=O)=O)cc1C(=O)N1CCc2cccc(Cl)c2C1` [Example 1.30, (8-Chloro-3,4-dihydro-1H-isoquinolin-2-yl)-(2-isopropoxy-5-methanesulfonyl-phenyl)-methanone], the IC50 (in general, the point on the concentration scale where inhibition reaches its midpoint) came out at 0.344 µM. In other words, the sub-micromolar range.

`CC(C)Oc1ccc(S(C)(=O)=O)cc1C(=O)N1CCc2c(ccc3c4ccccc4n(C)c23)C1` [Example 1.47, (2-Isopropoxy-5-methanesulfonyl-phenyl)-(11-methyl-1,2,4,11-tetrahydro-pyrido[4,3-a]carbazol-3-yl)-methanone]: the IC50 was 0.159 µM.

Consider `CC(C)Oc1ccc(S(C)(=O)=O)cc1C(=O)N1CCc2ccc(Cl)cc2C1` [Example 1.25, (7-Chloro-3,4-dihydro-1H-isoquinolin-2-yl)-(2-isopropoxy-5-methanesulfonyl-phenyl)-methanone], for which half-maximal inhibition (IC50) was put at 0.215 µM.

`C[C@H](Oc1ccc(S(C)(=O)=O)cc1C(=O)N1CCc2cc(C(F)(F)F)ccc2C1)C(F)(F)F` [Example 1.14, [5-Methanesulfonyl-2-((S)-2,2,2-trifluoro-1-methyl-ethoxy)-phenyl]-(6-trifluoromethyl-3,4-dihydro-1H-isoquinolin-2-yl)-methanone] had an IC50 of 0.175 µM. The IC50 values of the last two molecules are within 1.5-fold of each other.

Regarding `CC(C)Sc1ccc(S(C)(=O)=O)cc1C(=O)N1CCc2cc(Cl)ccc2C1` [Example 1.57, (6-Chloro-3,4-dihydro-1H-isoquinolin-2-yl)-(2-isopropylsulfanyl-5-methanesulfonyl-phenyl)-methanone], half-maximal inhibition (IC50) was put at 0.16 µM. The IC50 values of the last two molecules are within 1.5-fold of each other.

As for `C[C@H](Oc1ccc(S(C)(=O)=O)cc1C(=O)N1CCc2cc(Cl)ccc2C1)C(F)(F)F` [Example 1.18, (6-Chloro-3,4-dihydro-1H-isoquinolin-2-yl)-[5-methanesulfonyl-2-((S)-2,2,2-trifluoro-1-methyl-ethoxy)-phenyl]-methanone], the midpoint of inhibition, the IC50, lay at 0.157 µM. The IC50 values of the last two molecules are within 1.5-fold of each other.

As to `CC(C)Oc1ccc(S(C)(=O)=O)cc1C(=O)N1CCc2ccc(Cl)c(Cl)c2C1` [Example 1.26, (7,8-Dichloro-3,4-dihydro-1H-isoquinolin-2-yl)-(2-isopropoxy-5-methanesulfonyl-phenyl)-methanone], half-maximal inhibition (IC50) was put at 0.163 µM. This IC50 and that of the molecule before are within 1.5-fold of each other.

In turn, `CS(=O)(=O)c1ccc(N2CCOCC2)c(C(=O)N2CCc3cc(C(F)(F)F)ccc3C2)c1` [Example 1.13, (5-Methanesulfonyl-2-morpholin-4-yl-phenyl)-(6-trifluoromethyl-3,4-dihydro-1H-isoquinolin-2-yl)-methanone] yielded an IC50 of 0.321 µM.

Molecule `CC(C)Oc1ccc(S(C)(=O)=O)cc1C(=O)N1CCc2cc(C#N)ccc2C1` [Example 1.20, 2-(2-Isopropoxy-5-methanesulfonyl-benzoyl)-1,2,3,4-tetrahydro-isoquinoline-6-carbonitrile] yielded a half-maximal inhibitory concentration (IC50) of 0.454 µM.

In turn, `Cc1c2c(c(C)c3c1OCO3)CN(C(=O)c1cc(S(C)(=O)=O)ccc1OC(C)C)CC2` [Example 1.53] had an IC50 of 0.483 µM. This IC50 and that of the molecule before are within 1.5-fold of each other.

For `CS(=O)(=O)c1ccc(-c2ccccc2)c(C(=O)N2CCc3nc(C(F)(F)F)ccc3C2)c1` [Example 1.8, (4-Methanesulfonyl-biphenyl-2-yl)-(2-trifluoromethyl-7,8-dihydro-5H-[1,6]naphthyridin-6-yl)-methanone], it took 0.082 µM to reach half-maximal inhibition (IC50).

On to `CS(=O)(=O)c1ccc(-c2ccccc2)c(C(=O)N2CCc3cc(C(F)(F)F)ccc3C2)c1` [Example 1.15, (4-Methanesulfonyl-biphenyl-2-yl)-(6-trifluoromethyl-3,4-dihydro-1H-isoquinolin-2-yl)-methanone], for which 0.168 µM corresponded to half-maximal inhibition (IC50). Compared with the last molecule, the IC50 is about 2-fold higher.

In turn, `CC(C)Oc1ccc(S(C)(=O)=O)cc1C(=O)N1CCc2cc(C(F)(F)F)ccc2C1` [Example 1.12, (2-Isopropoxy-5-methanesulfonyl-phenyl)-(6-trifluoromethyl-3,4-dihydro-1H-isoquinolin-2-yl)-methanone] yielded an IC50 of 0.046 µM.

The molecule `CC(C)Oc1ccc(S(C)(=O)=O)cc1C(=O)N1CCc2cc(Cl)ccc2C1` [Example 1.19, (6-Chloro-3,4-dihydro-1H-isoquinolin-2-yl)-(2-isopropoxy-5-methanesulfonyl-phenyl)-methanone] registered an IC50 of 0.359 µM.

`COc1ccc2c(c1)CCN(C(=O)c1cc(S(C)(=O)=O)ccc1OC(C)C)C2` [Example 1.40, (2-Isopropoxy-5-methanesulfonyl-phenyl)-(6-methoxy-3,4-dihydro-1H-isoquinolin-2-yl)-methanone]: the IC50 came out at 0.481 µM.
